Reference: the NIST ThermoML archive (doi:10.1016/j.fluid.2012.11.007)
Where “and” joins values, the source holds several entries; their conditions need not be identical. Equal values may be shown once. Numbers after ± are expanded uncertainties.

Key:
[1] = Molar enthalpy of transition or fusion; details: Crystal; DSC
[2] = Crystal; DTA

With `CCCCn1cc[n+](C)c1.[Cl-]` [1-butyl-3-methylimidazolium chloride] the “Molar enthalpy of transition or fusion” value [1] was 6.1 kcal/mol and 6.02 kcal/mol and the Normal melting temperature [2] was 69.80 ± 0.5 °C.
In the case of `CCn1cc[n+](C)c1.[Cl-]` [1-ethyl-3-methylimidazolium chloride], the “Molar enthalpy of transition or fusion” value [1] is reported as 3.67 ± 0.127 kcal/mol and the Normal melting temperature [2] is reported as 88.60 ± 0.5 °C.
